Here are results for 15 molecules from ChEMBL document CHEMBL2069236, “Synthesis and biological evaluation of novel N-acyl substituted quinolin-2(1H)-one derivatives as potential antimicrobial agents” (2012).

As usually defined, the MIC is the lowest concentration that inhibits growth of the organism. Low readings indicate greater potency, high ones weaker potency.

Holding throughout (type): functional
Experiment [1] has as its system Staphylococcus aureus. The experiment is described as follows: Antibacterial activity against Staphylococcus aureus ATCC 25923 by disc diffusion method.
Experiment [2] concerns Staphylococcus aureus. The experiment is described as follows: Antibacterial activity against methicillin-resistant Staphylococcus aureus N 315 by disc diffusion method. Background: A growth-free zone around the sample is the usual read-out of agar diffusion tests.
Experiment [3] has as its system Bacillus subtilis. The experiment is described as follows: Antibacterial activity against Bacillus subtilis ATCC 6633 by disc diffusion method.
In experiment [4] the test system is Bacillus. Nature of the experiment: Antibacterial activity against Bacillus proteus by disc diffusion method.
For experiment [5], the system named is Escherichia coli. The experiment is described as follows: Antibacterial activity against Escherichia coli JM 109 by disc diffusion method.
Experiment [6] concerns Candida albicans. Nature of the experiment: Antifungal activity against Candida albicans ATCC 76615 by disc diffusion method.
For experiment [7], the system named is Candida. Nature of the experiment: Antifungal activity against Candida mycoderma by disc diffusion method.
Experiment [8] has as its system Staphylococcus aureus. Nature of the experiment: Ratio of streptomycin MIC to compound MIC for methicillin-resistant Staphylococcus aureus N 315.

≈ marks a conversion by molar mass, not a printed value.

With `CCCN(CCC)CC(=O)Nc1cccc2c1CCC(=O)N2.Cl`, the MIC in experiment [1] came to 8 µg/mL; in experiment [2] it was 64 µg/mL; in experiment [3] it was 64 µg/mL; in experiment [4] it was 256 µg/mL; in experiment [5], 64 µg/mL; in experiment [6], 256 µg/mL. This molecule also came in with an MIC in experiment [7] of 16 µg/mL.
Regarding `CCN(CC)CC(=O)Nc1cccc2c1CCC(=O)N2.Cl`, the MIC in experiment [1] was determined as 128 µg/mL; in experiment [2], 64 µg/mL; in experiment [3] it was 32 µg/mL; in experiment [4] it was 256 µg/mL; in experiment [5] it was 8 µg/mL; in experiment [6], 256 µg/mL. Besides, inhibition of growth in experiment [7] (MIC) required 32 µg/mL.
Regarding `CC(C)(C)NCC(=O)Nc1cccc2c1CCC(=O)N2.Cl`, the MIC in experiment [1] amounted to 32 µg/mL; in experiment [2] it was 128 µg/mL; in experiment [3], 256 µg/mL; in experiment [4], 256 µg/mL; in experiment [5], 32 µg/mL; in experiment [6], 16 µg/mL. Also, the MIC in experiment [7] was determined as 32 µg/mL.
For `Cl.O=C1CCc2c(cccc2NC(=O)CN(Cc2ccccc2)Cc2ccccc2)N1`, the MIC in experiment [1] was 128 µg/mL; in experiment [2], 128 µg/mL; in experiment [3], 32 µg/mL; in experiment [4], 32 µg/mL; in experiment [5], 64 µg/mL; in experiment [6], 128 µg/mL. Besides, the MIC in experiment [7] came to 256 µg/mL.
For `Cl.O=C1CCc2c(cccc2NC(=O)CN(CCO)CCO)N1`, the MIC worked out at 128 µg/mL in experiment [1]; 64 µg/mL in experiment [2]; 128 µg/mL in experiment [3]; 128 µg/mL in experiment [4]; 128 µg/mL in experiment [5]; 4 µg/mL in experiment [6]. In addition, in experiment [7], the MIC was found to be 128 µg/mL.
With `Cl.O=C1CCc2c(cccc2NC(=O)CNCc2ccccc2)N1`, the MIC stood at 32 µg/mL in experiment [1]; 256 µg/mL in experiment [2]; 64 µg/mL in experiment [3]; 64 µg/mL in experiment [4]; 64 µg/mL in experiment [5]; 32 µg/mL in experiment [6]. The minimum inhibitory concentration (MIC) in experiment [7] amounted to 32 µg/mL.
With `Cl.O=C1CCc2c(cccc2NC(=O)CN2CCCCC2)N1`, the MIC amounted to 32 µg/mL in experiment [1]; 64 µg/mL in experiment [2]; 16 µg/mL in experiment [3]; 128 µg/mL in experiment [4]; 32 µg/mL in experiment [5]; 128 µg/mL in experiment [6]. This molecule displayed an MIC in experiment [7] of 256 µg/mL. Moreover, in experiment [8], the Ratio is recorded as 8.
On to `Cl.O=C1CCc2c(cccc2NC(=O)Cn2ccnc2)N1`, for which the MIC in experiment [1] amounted to 16 µg/mL; in experiment [2], 64 µg/mL; in experiment [3], 32 µg/mL; in experiment [4], 64 µg/mL; in experiment [5] it was 64 µg/mL; in experiment [6], 16 µg/mL. Further, the MIC in experiment [7] came out at 16 µg/mL. Moreover, in experiment [8], the Ratio was found to be 8.
As for `Cl.O=C1CCc2c(cccc2NC(=O)CN2CCOCC2)N1`, the MIC in experiment [1] is 128 µg/mL; in experiment [2], 32 µg/mL; in experiment [3] it was 128 µg/mL; in experiment [4] it was 128 µg/mL; in experiment [5], 32 µg/mL; in experiment [6], 64 µg/mL. For the same molecule, the MIC in experiment [7] was 32 µg/mL. Moreover, the Ratio in experiment [8] is reported as 8.
As to `Cl.O=C1CCc2c(cccc2NC(=O)Cn2cnc3ccccc32)N1`, the MIC came out at 16 µg/mL in experiment [1]; 32 µg/mL in experiment [2]; 128 µg/mL in experiment [3]; 256 µg/mL in experiment [4]; 32 µg/mL in experiment [5]; 256 µg/mL in experiment [6]. In experiment [7], the MIC turned out to be 32 µg/mL. For the same molecule, the Ratio in experiment [8] is listed as 8.
As for `Cl.O=C1CCc2c(cccc2NC(=O)CN2CCNCC2)N1`, the MIC in experiment [1] stood at 64 µg/mL; in experiment [2], 32 µg/mL; in experiment [3], 64 µg/mL; in experiment [4], 16 µg/mL; in experiment [5], 128 µg/mL; in experiment [6], 32 µg/mL. For the same molecule, the MIC in experiment [7] is 4 µg/mL. Besides, the Ratio in experiment [8] came to 8.
With `Cl.O=C1CCc2c(cccc2NC(=O)CN2CCCC2)N1`, the MIC stood at 32 µg/mL in experiment [1]; 32 µg/mL in experiment [2]; 32 µg/mL in experiment [3]; 128 µg/mL in experiment [4]; 32 µg/mL in experiment [5]; 32 µg/mL in experiment [6]. Moreover, in experiment [7], the MIC came out at 128 µg/mL. Besides, the Ratio in experiment [8] worked out at 8.
In the case of `CC(C)(C)OC(=O)N1CCN(CC(=O)Nc2cccc3c2CCC(=O)N3)CC1.Cl`, the MIC in experiment [1] is 64 µg/mL; in experiment [2] it was 32 µg/mL; in experiment [3], 32 µg/mL; in experiment [4], 128 µg/mL; in experiment [5] it was 16 µg/mL; in experiment [6] it was 128 µg/mL. In experiment [7], the MIC was determined as 32 µg/mL. For the same molecule, in experiment [8], the Ratio amounted to 8.
As to `OC(Cn1cncn1)(Cn1cncn1)c1ccc(F)cc1F` [FLUCONAZOLE], the MIC is 4 µg/mL (≈ 13.1 µM) in experiment [6] and 8 µg/mL (≈ 26.1 µM) in experiment [7].
For `CN[C@@H]1[C@H](O[C@H]2[C@H](O[C@H]3[C@H](O)[C@@H](O)[C@H](N=C(N)N)[C@@H](O)[C@@H]3N=C(N)N)O[C@@H](C)[C@]2(O)C=O)O[C@@H](CO)[C@H](O)[C@H]1O` [STREPTOMYCIN], the MIC in experiment [1] stood at 32 µg/mL (≈ 55 µM); in experiment [2] it was 512 µg/mL (≈ 880 µM); in experiment [3], 32 µg/mL (≈ 55 µM); in experiment [4] it was 64 µg/mL (≈ 110 µM); in experiment [5] it was 16 µg/mL (≈ 27.5 µM).
